Experimental findings from ChEMBL document CHEMBL1201862, “PubChem BioAssay data set” (2004) are described below.

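Briefly, cells in 96-well plates were exposed to five compound concentrations for 48 h, and endpoints were estimated by linear interpolation. GI50: concentration for 50% inhibition of growth.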 Calls of active or inactive are those of the source. Cut-off read from the data, not from the text of the source: active = GI50 up to about 1.1 µM and inactive = higher.

Some test systems named below: HOP-92; ACHN; DU-145; Malme-3M; NCI-H522; SK-OV-3; HCC 2998; HT-29; SK-MEL-28; NCI-H226; CAKI-1; MOLT-4; OVCAR-4; MDA-MB-231; KM12; OVCAR-8; HOP-62; HCT-116; LOX IMVI.
Common to all, as to assay: growth of human tumour cells (NCI), 48 h

For `COc1ccc(/C(Cl)=C(\CNc2ccccn2)c2ccccc2)cc1OC`, the GI50 in the assay on HOP-92 is > 100 µM (inactive); in the assay with ACHN it was > 100 µM (inactive); in the assay on DU-145 it was > 100 µM (inactive); with Malme-3M, > 100 µM (inactive); in the assay with NCI-H522, 99.8 µM (inactive); in the assay with SK-OV-3, > 100 µM (inactive). Moreover, the GI50 with HCC 2998, in the assay on HT-29, in the assay with SK-MEL-28, in the assay on NCI-H226, in the assay with CAKI-1 and with MOLT-4 was > 100 µM (inactive) in each case. The GI50 in the assay with OVCAR-4, in the assay with MDA-MB-231, in the assay with KM12, in the assay with OVCAR-8, in the assay on HOP-62 and in the assay on HCT-116 was > 100 µM (inactive) throughout. Moreover, in the assay with LOX IMVI, the GI50 was > 100 µM (inactive).

`Cc1csc2nc(-c3ccc([N+](=O)[O-])cc3)c(/C=N/N=C(N)N)n12`: the GI50 in the assay with HOP-92 is < 0.01 µM (active); in the assay on ACHN it was 1.28 µM (inactive); in the assay with DU-145, 2.21 µM (inactive); in the assay with Malme-3M it was 1.53 µM (inactive); in the assay on NCI-H522, 1.63 µM (inactive); in the assay with SK-OV-3, 1.69 µM (inactive). Further, the GI50 is < 0.01 µM (active) in the assay on HCC 2998; 1.76 µM (inactive) in the assay with HT-29; 1.74 µM (inactive) in the assay on SK-MEL-28; 1.73 µM (inactive) in the assay on NCI-H226; 4.73 µM (inactive) in the assay with CAKI-1; 1.53 µM (inactive) with OVCAR-4. The GI50 is 1.76 µM (inactive) in the assay on MDA-MB-231; 1.7 µM (inactive) in the assay on KM12; 0.716 µM (active) in the assay with OVCAR-8; 1.7 µM (inactive) in the assay with HOP-62; 1.81 µM (inactive) in the assay on HCT-116; 1.9 µM (inactive) with LOX IMVI.

On to `CO[C@@H]1[C@@H](OC2OC(C)C(OC3CC(C)(O)C(OC(=O)CC(C)C)C(C)O3)C(N(C)C)C2O)[C@@H](CC=O)C[C@@H](C)C(=O)/C=C/C2O[C@H]2C[C@@H](C)OC(=O)C[C@H]1OC(C)=O` (some centres undefined), for which the GI50 with HOP-92 was 4.46 µM (inactive); in the assay on ACHN, 18.7 µM (inactive); in the assay with DU-145 it was 14.6 µM (inactive); with Malme-3M it was 14 µM (inactive); with NCI-H522, 16.6 µM (inactive); in the assay with SK-OV-3, 39.2 µM (inactive). Further, the GI50 with HCC 2998 is 17.7 µM (inactive); in the assay with HT-29, 12.3 µM (inactive); in the assay on SK-MEL-28 it was 18.5 µM (inactive); in the assay with NCI-H226, 13 µM (inactive); in the assay with MOLT-4, 9.57 µM (inactive); with OVCAR-4, 15.2 µM (inactive). For the same compound, the GI50 was 24.8 µM (inactive) with MDA-MB-231; 17.3 µM (inactive) in the assay on KM12; 22.6 µM (inactive) in the assay with OVCAR-8; 19 µM (inactive) with HOP-62; 14.9 µM (inactive) in the assay on HCT-116; 15.8 µM (inactive) in the assay on LOX IMVI.

For the compound `Cc1ccc(C2=Nc3c(N)nc(N)nc3NC(c3ccccc3)C2)cc1` (centres undefined), the GI50 is 10.3 µM (inactive) with HOP-92; 15.1 µM (inactive) in the assay with ACHN; 14.8 µM (inactive) in the assay with DU-145; 10.9 µM (inactive) in the assay with Malme-3M; 3.65 µM (inactive) in the assay with NCI-H522; 13.9 µM (inactive) in the assay with SK-OV-3. Moreover, the GI50 in the assay on HCC 2998 was 7.41 µM (inactive); with HT-29, 3.99 µM (inactive); in the assay with SK-MEL-28, 12 µM (inactive); in the assay with NCI-H226, 14.3 µM (inactive); with CAKI-1 it was 10.5 µM (inactive); in the assay on MOLT-4 it was 5.14 µM (inactive). The GI50 in the assay with OVCAR-4 was 13.9 µM (inactive); in the assay on MDA-MB-231 it was 7.4 µM (inactive); in the assay on OVCAR-8 it was 14 µM (inactive); in the assay with HOP-62, 12.5 µM (inactive); with HCT-116, 5.53 µM (inactive); with LOX IMVI, 11 µM (inactive).

Consider `CCCCc1ccc(N2C(=O)c3cc(C)cnc3S2(=O)=O)cc1`, for which the GI50 with HOP-92 is > 100 µM (inactive); with ACHN, > 100 µM (inactive); with DU-145 it was > 100 µM (inactive); in the assay with Malme-3M, > 100 µM (inactive); in the assay on NCI-H522 it was > 100 µM (inactive); in the assay with SK-OV-3, 63.2 µM (inactive). The GI50 with HCC 2998, in the assay on HT-29, in the assay on SK-MEL-28, in the assay with NCI-H226, with MOLT-4 and in the assay on OVCAR-4 was > 100 µM (inactive) in each case. The GI50 in the assay with MDA-MB-231 is > 100 µM (inactive); with KM12, > 100 µM (inactive); in the assay with OVCAR-8, > 100 µM (inactive); in the assay with HOP-62 it was 85.7 µM (inactive); in the assay on HCT-116, > 100 µM (inactive); in the assay with LOX IMVI, > 100 µM (inactive).

As to `CCOC(=O)/C=C/c1cccc(F)c1`, the GI50 in the assay with HOP-92, in the assay with ACHN, in the assay with DU-145, in the assay on Malme-3M, in the assay on NCI-H522 and with HCC 2998 was > 100 µM (inactive) in each case. Besides, the GI50 in the assay on HT-29, in the assay on SK-MEL-28, with NCI-H226, in the assay with CAKI-1, with MOLT-4 and in the assay on OVCAR-4 was > 100 µM (inactive) in each case. Moreover, the GI50 in the assay on MDA-MB-231, with KM12, with OVCAR-8, in the assay with HOP-62, in the assay with HCT-116 and in the assay on LOX IMVI was > 100 µM (inactive) each time.

Consider `Cc1cc(S(=O)(=O)n2ccnc2Oc2ccccc2)c(SSc2cc(Cl)c(C)cc2S(=O)(=O)n2ccnc2Oc2ccccc2)cc1Cl`, for which the GI50 in the assay on HOP-92 was > 100 µM (inactive); in the assay with DU-145, 74.1 µM (inactive); in the assay on Malme-3M it was 57.5 µM (inactive); in the assay on NCI-H522, 5.93 µM (inactive); in the assay with SK-OV-3, > 100 µM (inactive); in the assay on HCC 2998 it was > 100 µM (inactive). Further, the GI50 in the assay with HT-29 was > 100 µM (inactive); in the assay on SK-MEL-28, > 100 µM (inactive); with NCI-H226, 15.9 µM (inactive); with CAKI-1, > 100 µM (inactive); with OVCAR-4 it was 35.3 µM (inactive); with MDA-MB-231 it was > 100 µM (inactive). The GI50 in the assay on KM12, with OVCAR-8, in the assay on HCT-116 and with LOX IMVI was > 100 µM (inactive) throughout.

Turning to `Cn1c(=O)c2c(nc3n(Cc4ccccc4)c(=O)c(Br)cn23)n(C)c1=O`, the GI50 in the assay with HOP-92, with ACHN, in the assay on DU-145, with NCI-H522, in the assay with HCC 2998 and in the assay on HT-29 was > 100 µM (inactive) each time. Further, the GI50 in the assay on SK-MEL-28, in the assay with NCI-H226, with CAKI-1, in the assay with MOLT-4, with OVCAR-4 and with MDA-MB-231 was > 100 µM (inactive) each time. The GI50 with KM12 was > 100 µM (inactive); in the assay with OVCAR-8 it was > 100 µM (inactive); in the assay with HOP-62 it was 80.5 µM (inactive); with HCT-116 it was > 100 µM (inactive); in the assay on LOX IMVI, > 100 µM (inactive).

As to `CC(=O)n1nc(-c2ccccc2)n(/N=C/c2ccc([N+](=O)[O-])o2)c1=O`, the GI50 with HOP-92 was 9.86 µM (inactive); in the assay on ACHN, 8.38 µM (inactive); in the assay with DU-145 it was 7.91 µM (inactive); in the assay on Malme-3M, 6.67 µM (inactive); in the assay on NCI-H522, 3.7 µM (inactive); with SK-OV-3, 16.6 µM (inactive). For the same compound, the GI50 is 4.53 µM (inactive) with HCC 2998; 3.37 µM (inactive) in the assay on HT-29; 9.84 µM (inactive) in the assay with SK-MEL-28; 9.46 µM (inactive) in the assay on CAKI-1; 3.24 µM (inactive) with MOLT-4; 15.1 µM (inactive) with OVCAR-4. In addition, the GI50 with MDA-MB-231 was 8.34 µM (inactive); with KM12, 16.4 µM (inactive); in the assay with OVCAR-8 it was 9.93 µM (inactive); in the assay on HOP-62 it was 4.94 µM (inactive); with HCT-116 it was 1.47 µM (inactive); in the assay on LOX IMVI, 7.74 µM (inactive).

For `N#Cc1c(O)c(/N=N/c2ccccc2F)c(=O)n2c1[nH]c1ccccc12`, the GI50 with HOP-92 is 15.1 µM (inactive); with ACHN, 34 µM (inactive); in the assay with DU-145, 42.4 µM (inactive); in the assay with Malme-3M it was 28.5 µM (inactive); in the assay with NCI-H522, 27.9 µM (inactive); in the assay on SK-OV-3 it was 50.5 µM (inactive). Moreover, the GI50 in the assay on HCC 2998 is 53.6 µM (inactive); in the assay with HT-29, 23.3 µM (inactive); in the assay on SK-MEL-28, 29.4 µM (inactive); in the assay on NCI-H226 it was 33.7 µM (inactive); in the assay on OVCAR-4 it was 39.3 µM (inactive); with MDA-MB-231, 22.2 µM (inactive). Further, the GI50 was 39.3 µM (inactive) in the assay on OVCAR-8, 43.7 µM (inactive) with HOP-62, 26.6 µM (inactive) in the assay on HCT-116 and 61.9 µM (inactive) in the assay with LOX IMVI.

In the case of `O=C1/C(=C/c2ccccc2O)N=C(c2ccccc2)N1c1nc2ccccc2s1`, the GI50 in the assay on HOP-92 was 29.9 µM (inactive); in the assay on ACHN it was 23.7 µM (inactive); in the assay on DU-145, 27.3 µM (inactive); in the assay with NCI-H522 it was 4.06 µM (inactive); with SK-OV-3, 23.4 µM (inactive); in the assay with HCC 2998 it was 13.7 µM (inactive). For the same compound, the GI50 in the assay with HT-29 was 20.9 µM (inactive); in the assay on SK-MEL-28, 21.3 µM (inactive); with NCI-H226, 22.7 µM (inactive); in the assay with CAKI-1 it was 32.7 µM (inactive); in the assay on MOLT-4 it was 19.5 µM (inactive); with OVCAR-4, 32.1 µM (inactive). For the same compound, the GI50 with MDA-MB-231 is 18.3 µM (inactive); in the assay on KM12, 7.73 µM (inactive); in the assay with OVCAR-8, 23.9 µM (inactive); with HOP-62 it was 18.6 µM (inactive); in the assay on HCT-116, 14.3 µM (inactive); in the assay with LOX IMVI, 15.5 µM (inactive).
